Measured values: US10583124B2, “Wild bird treatment composition and methods” (priority 2016, dated 2020)
Like-named read-outs stand apart in the source and are kept apart here.

Assays:
[1] = type: physicochemical; conditions: in acetonitrile, positive control, 1 hour
Procedure: Composition 10 was exposed to elevated temperature (75° C.) for 1 hour to determine if fenbendazole inside composition 10 was being protected from the effects of high temperature. Control composition 10 was left at room temperature for the same time period. Additionally, 100 ppm fenbendazole in acetonitrile was used as a positive control and exposed to the same conditions (room and elevated temperature for 1 hour).

[2] = as long as protected from photo oxidation; cited from earlier work

Fenbendazole extracted from 100 ppm fenbendazole solution ([1]; 21 °C (room temperature)): 115.18 ppm
Fenbendazole extracted from 100 ppm fenbendazole solution ([1]; 75 °C): 93.36 ppm
Compound: COC(=O)Nc1nc2ccc(Sc3ccccc3)cc2[nH]1 [fenbendazole]
humidity range in which stable [2]: 10-100%
temperature range in which stable [2]: 4.4-37.7 °C
